Reference: patent US11241385B2, “Topical composition and method for treating and preventing atopic dermatitis and infections related to bacteria biofilm” (Johnson & Johnson Consumer Inc., priority 2017, dated 2022)

Experiments:
[1] = system: Staphylococcus aureus biofilms; assay: Biofilm growth, crystal violet method; format: cell-based, Staphylococcus Aureus MFP03; details: S. aureus, absorbance 550 nm
Description: 1.3.2 Biofilm Growth, Crystal Violet Method
Experiments on biofilm growth were performed according to the protocol disclosed in G. A. O'Toole, Microtiter Dish Biofilm Formation Assay, J Vis Exp. 2011; (47): 2437. The protocol disclosed by G. A. O'Toole teaches the assay on Pseudomonas aeruginosa, it was adapted to Staphylococcus Aureus MFP03 and Staphylococcus Epidermis MFP04.
Two conditions were studied: • The effect of the emulsions on biofilms in formation: the emulsions are added to the medium from the beginning of the bacterial growth. • The effect of emulsions on established biofilms: the emulsions are added to the bacteria after a first 24-hour incubation that allowed the development of the biofilm.
The protocol taught by G. A. O'Toole is as follows:
1. Grow a culture of the wild-type Pseudomonas aeruginosa or mutant strain overnight in a rich medium (i.e. LB)
2. […] For quantitative assays, we typically use 4-8 replicate wells for each treatment. […] Quantifying the Biofilm 1. […] Quantify absorbance in a plate reader at 550 nm using 30% acetic acid in water as the blank. For the conditions of biofilms in formation: emulsions at 10% (w/w) are added to the medium, and after 24 h of incubation, the optical density is measured. […] Optical density is then measured. Results are expressed in percentage of absorbance relative to the control sample, which is the biofilm itself. […]

[2] = system: Staphylococcus aureus biofilms; assay: Biofilm growth inhibition, wells method (inhibition halos); format: cell-based; details: S. Aureus
Description: (§1) 1.3.3 Biofilm Growth Inhibition, Wells Method.
(§2) Protocol disclosed by Hui Zhang was adapted as follow: • a—100 μL of a bacterial strains culture (DO580=0.5) is spread on a LB culture plate. • b—5 mm diameter wells are created with a punch in the gel surface of the culture plate. Each well is attributed to one formulation, the same formulation throughout the test. • c—50 μL of tested formulation is injected per well. • d—24 hours incubation at 37° C. • e—Wells are emptied from the formulations. • f—Growth inhibition halos are measured. • g—Repeat from step c to obtain data over several days (8 days in the present case).
(§3) Tests were conducted on biofilms according to the methodology disclosed on paragraph 1.3.3 (Wells). A 10% solution of Triton X-100 (Aldrich) was submitted to the same test, results after 2 days were used as references.
(§4) Inhibition halos were measured and compared to the inhibition halo obtained for the Triton X-100 solution after 2 days. Inhibition halo differences are expressed in %. Over 100% the inhibition is higher than what is observed for Triton at 2 days; under 100% the inhibition is lower than what is observed for Triton at 2 days. Inhibition was measured at 2 days and 8 days.

[3] = system: Staphylococcus Epidermidis biofilms; assay: as above; format: cell-based; details: S. Epidermidis
Description: as §1, §2, §3, §4

Triton X-100
Absorbance percentage relative to the control (the biofilm itself), established biofilm ([1]; after 24 h biofilm growth medium replaced for 4 hours by emulsion): 177% | Absorbance percentage relative to the control (the biofilm itself), biofilm in formation ([1]; emulsion at 10% (w/w) in medium from start, 24 h incubation): 27% | Growth inhibition % (halo), relative to Triton X-100 at 2 days ([2]; 2 days): 100% | Growth inhibition % (halo), relative to Triton X-100 at 2 days ([2]; 8 days): 198.5% | Growth inhibition % (halo), relative to Triton X-100 at 2 days ([3]; 2 days): 100% | Growth inhibition % (halo), relative to Triton X-100 at 2 days ([3]; 8 days): 231%
